Measured values as given in patent US20050148627A1, “Benzopyran compounds for use in the treatment and prevention of inflammation related conditions” (priority 2003, published 2005).
Several values for one entry are separate records, joined by “and”; a condition that tells them apart may be missing. Equal values may be shown once.

Legend:
[1] = biological target: COX-1 (Homo sapiens, UniProt P23219); experiment: biochemical
Sequence of COX-1 (P23219 24-599): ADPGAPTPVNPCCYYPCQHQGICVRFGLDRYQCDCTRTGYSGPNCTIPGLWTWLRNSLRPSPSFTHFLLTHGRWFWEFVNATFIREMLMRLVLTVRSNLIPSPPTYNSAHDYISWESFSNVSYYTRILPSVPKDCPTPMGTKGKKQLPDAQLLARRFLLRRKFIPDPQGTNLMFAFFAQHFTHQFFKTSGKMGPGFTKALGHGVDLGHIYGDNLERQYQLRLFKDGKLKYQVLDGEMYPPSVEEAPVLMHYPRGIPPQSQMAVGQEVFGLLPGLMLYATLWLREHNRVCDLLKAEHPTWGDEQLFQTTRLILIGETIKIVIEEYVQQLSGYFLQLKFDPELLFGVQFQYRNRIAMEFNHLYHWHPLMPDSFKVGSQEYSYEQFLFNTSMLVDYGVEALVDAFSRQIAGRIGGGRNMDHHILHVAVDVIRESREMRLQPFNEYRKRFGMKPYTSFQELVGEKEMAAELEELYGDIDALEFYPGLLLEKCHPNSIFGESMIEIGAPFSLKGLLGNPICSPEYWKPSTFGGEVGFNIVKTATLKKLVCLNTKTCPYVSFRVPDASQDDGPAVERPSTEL

Structure (SMILES) | melting point [°C] | IC50 [1]
CCc1ccc(Oc2cc3c(cc2Cl)C=C(C(=O)O)[C@H](C(F)(F)F)O3)cc1 (single isomer, unassigned) [Example 931] | 130 to 131 | –
CCc1ccc(Oc2cc3c(cc2Cl)C=C(C(=O)O)[C@@H](C(F)(F)F)O3)cc1 (single isomer, unassigned) [Example 939] | 90 to 95 | –
O=C(O)C1=Cc2cccc(OCc3ccccc3)c2OC1C(F)(F)F (stereo not drawn) [Example 25g, 8-(benzyloxy)-2-(trifluoromethyl)-2H-chromene-3-carboxylic acid] | – | > 100 µM and 80.7 µM
O=C(O)C1=Cc2cccc(OCc3ccoc3)c2OC1C(F)(F)F (stereo not drawn) [Example 25h, 8-(3-furylmethoxy)-2-(trifluoromethyl)-2H-chromene-3-carboxylic acid] | – | > 100 µM and 72.3 µM
CCOc1cc(Br)cc2c1OC(C(F)(F)F)C(C(=O)O)=C2 (stereo not drawn) [Example 26, 6-bromo-8-ethoxy-2-(trifluoromethyl)-2H-chromene-3-carboxylic acid] | – | > 100 µM
CCOc1c(Cl)c(Br)c(Cl)c2c1OC(C(F)(F)F)C(C(=O)O)=C2 (stereo not drawn) [Example 27, 6-bromo-5,7-dichloro-8-ethoxy-2-(trifluoromethyl)-2H-chromene-3-carboxylic acid] | – | > 100 µM and 198 µM
CCCOc1c(Cl)c(Cl)c(Cl)c2c1OC(C(F)(F)F)C(C(=O)O)=C2 (stereo not drawn) [Example 28a, 5,6,7-trichloro-8-propoxy-2-(trifluoromethyl)-2H-chromene-3-carboxylic acid] | – | 43.6 µM and 41.3 µM
CCCCOc1c(Cl)c(Cl)c(Cl)c2c1OC(C(F)(F)F)C(C(=O)O)=C2 (stereo not drawn) [Example 28b, 8-butoxy-5,6,7-trichloro-2-(trifluoromethyl)-2H-chromene-3-carboxylic acid] | – | 41.7 µM
COc1c(Cl)c(Cl)c(C)c2c1OC(C(F)(F)F)C(C(=O)O)=C2 (stereo not drawn) [Example 29, 6,7-dichloro-8-methoxy-5-methyl-2-(trifluoromethyl)-2H-chromene-3-carboxylic acid] | – | > 100 µM and 217 µM
COc1c(Cl)c(Cl)c(Br)c2c1OC(C(F)(F)F)C(C(=O)O)=C2 (stereo not drawn) [Example 30, 5-bromo-6,7-dichloro-8-methoxy-2-(trifluoromethyl)-2H-chromene-3-carboxylic acid] | – | 193 µM and > 100 µM
CCOc1cc(C)cc2c1OC(C(F)(F)F)C(C(=O)O)=C2 (stereo not drawn) [Example 31, 8-ethoxy-6-methyl-2-(trifluoromethyl)-2H-chromene-3-carboxylic acid] | – | > 500 µM
Cc1cc(C)c2c(c1Cl)C=C(C(=O)O)C(C(F)(F)F)O2 (stereo not drawn) [Example 33, 5-chloro-6,8-dimethyl-2-(trifluoromethyl)-2H-chromene-3-carboxylic acid] | – | 8.28 µM and 6.09 µM and 43.4 µM and 18.5 µM
CC(C)(C)c1cc(Cl)c2c(c1)C=C(C(=O)O)C(C(F)(F)F)O2 (stereo not drawn) [Example 35, 6-tert-butyl-8-chloro-2-(trifluoromethyl)-2H-chromene-3-carboxylic acid] | – | 2.87 µM
C=C(C)C#Cc1cc(Cl)cc2c1OC(C(F)(F)F)C(C(=O)O)=C2 (stereo not drawn) [Example 36, 6-chloro-8-(3-methylbut-3-en-1-ynyl)-2-(trifluoromethyl)-2H-chromene-3-carboxylic acid] | – | 78.5 µM and 52.3 µM
C=C(c1ccccc1)c1ccc2c(c1)OC(C(F)(F)F)C(C(=O)O)=C2 (stereo not drawn) [Example 37a, 7-(1-phenylvinyl)-2-(trifluoromethyl)-2H-chromene-3-carboxylic acid] | – | 69.4 µM
CC(c1ccccc1)c1ccc2c(c1)OC(C(F)(F)F)C(C(=O)O)=C2 (stereo not drawn) [Example 37b, 7-(1-phenylethyl)-2-(trifluoromethyl)-2H-chromene-3-carboxylic acid] | – | > 100 µM
CC(C)CN(C)c1c(Cl)cc2c(c1Cl)OC(C(F)(F)F)C(C(=O)O)=C2 (stereo not drawn) [Example 38a, 6,8-dichloro-7-[isobutyl(methyl)amino]-2-(trifluoromethyl)-2H-chromene-3-carboxylic acid] | – | < 0.137 µM
CNc1c(Cl)cc2c(c1Cl)OC(C(F)(F)F)C(C(=O)O)=C2 (stereo not drawn) [Example 38b, 6,8-dichloro-7-(methylamino)-2-(trifluoromethyl)-2H-chromene-3-carboxylic acid] | – | > 100 µM
CC(C)CNc1c(Cl)cc2c(c1Cl)OC(C(F)(F)F)C(C(=O)O)=C2 (stereo not drawn) [Example 38c, 6,8-dichloro-7-(isobutylamino)-2-(trifluoromethyl)-2H-chromene-3-carboxylic acid] | – | < 0.137 µM
NS(=O)(=O)c1ccc(C#Cc2cc(Cl)cc3c2OC(C(F)(F)F)C(C(=O)O)=C3)cc1 (stereo not drawn) [Example 39b, 8-{[4-(aminosulfonyl)phenyl]ethynyl}-6-chloro-2-(trifluoromethyl)-2H-chromene-3-carboxylic acid] | – | 3.93 µM
O=C(O)C1=Cc2cc(Br)c(Cc3ccccc3)cc2OC1C(F)(F)F (stereo not drawn) [Example 41, 7-benzyl-6-bromo-2-(trifluoromethyl)-2H-chromene-3-carboxylic acid] | – | 14.6 µM and 12.9 µM
Cc1cc2c(cc1Cc1ccccc1)OC(C(F)(F)F)C(C(=O)O)=C2 (stereo not drawn) [Example 42a, 7-benzyl-6-methyl-2-(trifluoromethyl)-2H-chromene-3-carboxylic acid] | – | 28.7 µM and 25.2 µM and 14.7 µM
CCc1cc2c(cc1Cc1ccccc1)OC(C(F)(F)F)C(C(=O)O)=C2 (stereo not drawn) [Example 42b, 7-benzyl-6-ethyl-2-(trifluoromethyl)-2H-chromene-3-carboxylic acid] | – | > 100 µM

Structure (SMILES) | melting point [°C] | IC50 [1]
CCCc1cc2c(cc1Cc1ccccc1)OC(C(F)(F)F)C(C(=O)O)=C2 (stereo not drawn) [Example 42c, 7-benzyl-6-propyl-2-(trifluoromethyl)-2H-chromene-3-carboxylic acid] | – | > 100 µM
CCCCc1cc2c(cc1Cc1ccccc1)OC(C(F)(F)F)C(C(=O)O)=C2 (stereo not drawn) [Example 42d, 7-benzyl-6-butyl-2-(trifluoromethyl)-2H-chromene-3-carboxylic acid] | – | 58.3 µM
CSc1cc(Cl)cc2c1OC(C(F)(F)F)C(C(=O)O)=C2 (stereo not drawn) [Example 44, 6-chloro-8-(methylthio)-2-(trifluoromethyl)-2H-chromene-3-carboxylic acid] | – | 0.185 µM and 0.12 µM and < 0.137 µM
Cc1cc(Br)c2c(c1)C=C(C(=O)O)C(C(F)(F)F)N2 (stereo not drawn) [Example 46, 8-Bromo-6-methyl-2-(trifluoromethyl)-1,2-dihydroquinoline-3-carboxylic acid] | – | > 100 µM
Cc1cc(Cl)cc2c1NC(C(F)(F)F)C(C(=O)O)=C2 (stereo not drawn) [Example 47, 6-chloro-8-methyl-2-(trifluoromethyl)-1,2-dihydroquinoline-3-carboxylic acid] | – | > 500 µM
O=C(O)C1=Cc2cc(-c3ccc(F)cc3)ccc2NC1C(F)(F)F (stereo not drawn) [Example 48, 6-(4-fluorophenyl)-2-(trifluoromethyl)-1,2-dihydroquinoline-3-carboxylic acid] | – | 42.7 µM
Cc1cc2c(c(C)c1Cl)C=C(C(=O)O)C(C(F)(F)F)O2 (stereo not drawn) [Example 100, 6-chloro-5,7-dimethyl-2-(trifluoromethyl)-2H-chromene-3-carboxylic acid] | – | 30.2 µM and 29.4 µM
Cc1cc2c(c(C)c1Cl)C=C(C(=O)O)[C@H](C(F)(F)F)O2 [Example 101, (2R)-6-chloro-5,7-dimethyl-2-(trifluoromethyl)-2H-chromene-3-carboxylic acid] | – | > 100 µM and 430 µM and > 500 µM
Cc1c(C)c2c(c(C)c1Cl)C=C(C(=O)O)C(C(F)(F)F)O2 (stereo not drawn) [Example 104] | – | 6.75 µM and 12.1 µM
Cc1cc(Cl)c(C)c2c1OC(C(F)(F)F)C(C(=O)O)=C2 (stereo not drawn) [Example 105, 6-chloro-5,8-dimethyl-2-(trifluoromethyl)-2H-chromene-3-carboxylic acid] | – | 3.32 µM and 2 µM
CCC(C)(C)c1ccc2c(c1)OC(C(F)(F)F)C(C(=O)O)=C2 (stereo not drawn) [Example 106, 7-tert-pentyl-2-(trifluoromethyl)-2H-chromene-3-carboxylic acid] | – | > 100 µM and 93 µM
CCCC(C)(C)c1ccc2c(c1)OC(C(F)(F)F)C(C(=O)O)=C2 (stereo not drawn) [Example 108, 7-(1,1-dimethylbutyl)-2-(trifluoromethyl)-2H-chromene-3-carboxylic acid] | – | > 100 µM and 169 µM
CCCCC(C)(C)c1ccc2c(c1)OC(C(F)(F)F)C(C(=O)O)=C2 (stereo not drawn) [Example 109, 7-(1,1-dimethylpentyl)-2-(trifluoromethyl)-2H-chromene-3-carboxylic acid] | – | 0.413 µM and < 0.137 µM
CCCCC(C)(C)c1cc2c(cc1Cl)C=C(C(=O)O)C(C(F)(F)F)O2 (stereo not drawn) [Example 110, 6-chloro-7-(1,1-dimethylpentyl)-2-(trifluoromethyl)-2H-chromene-3-carboxylic acid] | – | 16.1 µM and 13.1 µM
CCCC(C)(C)c1cc2c(cc1Cl)C=C(C(=O)O)C(C(F)(F)F)O2 (stereo not drawn) [Example 111, 6-chloro-7-(1,1-dimethylbutyl)-2-(trifluoromethyl)-2H-chromene-3-carboxylic acid] | – | 9.16 µM and 9.17 µM
COc1cc2c(cc1C(C)(C)C)OC(C(F)(F)F)C(C(=O)O)=C2 (stereo not drawn) [Example 112, 7-tert-butyl-6-methoxy-2-(trifluoromethyl)-2H-chromene-3-carboxylic acid] | – | > 100 µM
C=C(C)c1cc2c(cc1Cl)C=C(C(=O)O)C(C(F)(F)F)O2 (stereo not drawn) [Example 113, 6-chloro-7-isopropenyl-2-(trifluoromethyl)-2H-chromene-3-carboxylic acid] | – | > 100 µM
CC(C)(C=O)c1ccc2c(c1)OC(C(F)(F)F)C(C(=O)O)=C2 (stereo not drawn) [Example 114, 7-(1,1-dimethyl-2-oxoethyl)-2-(trifluoromethyl)-2H-chromene-3-carboxylic acid] | – | 63.9 µM
CC(C)(C(=O)O)c1cc2c(cc1Cl)C=C(C(=O)O)C(C(F)(F)F)O2 (stereo not drawn) [Example 115, 7-(1-carboxy-1-methylethyl)-6-chloro-2-(trifluoromethyl)-2H-chromene-3-carboxylic acid] | – | > 100 µM
COCC(C)(C)c1cc2c(cc1Cl)C=C(C(=O)O)C(C(F)(F)F)O2 (stereo not drawn) [Example 116, 6-chloro-7-(2-methoxy-1,1-dimethylethyl)-2-(trifluoromethyl)-2H-chromene-3-carboxylic acid] | – | > 100 µM
CC(C)(C#N)c1cc2c(cc1Cl)C=C(C(=O)O)C(C(F)(F)F)O2 (stereo not drawn) [Example 118, 6-chloro-7-(1-cyano-1-methylethyl)-2-(trifluoromethyl)-2H-chromene-3-carboxylic acid] | – | > 100 µM
O=C(O)C1=Cc2c(cc3c(c2Cl)OCO3)OC1C(F)(F)F (stereo not drawn) [Example 119, 9-chloro-6-(trifluoromethyl)-6H-[1,3]dioxolo[4,5-g]chromene-7-carboxylic acid] | – | > 500 µM
